# Earlier results, collected in article PMC4310808 (European journal of medicinal chemistry, 2014).
# No end group written: not given here.
# System: erythrocytes
sequence,measurement,value
"GIINTLQKYYCRVRGGRCAVLSCLPKEEQIGKCSTRGRKCCRRKK (also: bicyclic or more (positions not given here)) [HβD-3, Human beta defensin-3]",Hemolytic activity at physiological salt concentrations,no hemolytic activity
